Results published in the OPERA property sets (Mansouri et al. 2018).

Details: for log10 BCF / log10 biotransformation half-life (days): fish

| SMILES | melting point [°C] | boiling point [°C] | further results |
| --- | --- | --- | --- |
| N#CCC(N)=O | 122 |  |  |
| COCC(C)OC (centres undefined) |  | 96 |  |
| COc1ccc(CO)cc1O | 136 |  |  |
| Cc1cc(N)cc(C)n1 | 192 | 246 |  |
| CC(=O)Nc1ccc(Cl)c(Cl)c1 |  |  | log10 Koc (L/kg): 2.34 |
| CCC(Br)CC | -126 | 119 |  |
| CSc1nc2ccccc2s1 | 44 |  |  |
| O=CC1CCCO1 (centres undefined) |  | 142 |  |
| C[Si](C)(C)O[Si](C)(O[Si](C)(C)C)O[Si](C)(C)C |  |  | log10 vapour pressure (mmHg): -1.4 |
| O=S1OCC2C(CO1)C1(Cl)C(Cl)=C(Cl)C2(Cl)C1(Cl)Cl (centres undefined) | 106 |  | log10 Henry constant (atm·m³/mol): -4.62; log10 Koc (L/kg): 4.11; log10 vapour pressure (mmHg): -6.17 |
| CN1C(=O)C=CC1=O | 95 |  |  |
| CC1(C)NC(=O)NC1=O | 178 |  |  |
| CCCCCC(C)(C)O | -50.4 | 156 |  |
| COc1cc(O)c(C(=O)c2ccccc2)c(O)c1 | 130 |  |  |
| COc1ccc(C(Cl)=C(c2ccc(OC)cc2)c2ccc(OC)cc2)cc1 | 115 |  |  |
| O/N=C\c1cc[n+](COC[n+]2ccc(/C=N\O)cc2)cc1.[Cl-].[Cl-] | 220 |  |  |
| COP(=S)(OC)Oc1nc(Cl)c(Cl)cc1Cl | 43 |  | log10 Koc (L/kg): 3.52; log10 vapour pressure (mmHg): -4.38 |
| CCC(C)(CC)c1ccccc1 |  | 205 |  |
| O=C(O)CCCCCBr | 35 |  |  |
| COC(=O)COc1ccc(Cl)cc1Cl | 119 |  | log10 vapour pressure (mmHg): -2.64 |
| C1COCOC1 | -45 | 106 |  |
| Cc1c(C)c2ccccc2c2ccccc12 | 144 |  |  |
| CNCc1ccco1 |  | 149 |  |
| C1CC[C@@H]2NCCC[C@@H]2C1 | -40 | 206 |  |
| COCCOCCO |  | 193 | log10 vapour pressure (mmHg): -0.602 |

| SMILES | melting point [°C] | boiling point [°C] | further results |
| --- | --- | --- | --- |
| O=C(Br)CBr |  | 148 |  |
| COc1ccc(-c2ccccc2)cc1NNC(=O)OC(C)C | 122 |  |  |
| CC(O)C(C)C(C)O (centres undefined) |  | 212 |  |
| COc1ccc(C(=O)c2ccccc2O)c(O)c1 | 68 |  |  |
| CCCC(=O)OCc1ccco1 |  | 212 |  |
| CCC(=O)OC(C)(C)C |  | 118 |  |
| Brc1cc(Br)c(Oc2c(Br)c(Br)c(Br)c(Br)c2Br)c(Br)c1Br |  |  | log10 BCF: 5.75 |
| ClCCCCl | -99.5 | 121 | log10 Henry constant (atm·m³/mol): -3.01; log10 vapour pressure (mmHg): 1.26 |
| Nc1ccc2nccnc2c1 | 159 |  |  |
| Clc1nc(Cl)c(Cl)c(Cl)n1 | 69 |  |  |
| O=c1ccc2ccc(O)cc2o1 | 230 |  |  |
| COc1cc(OC)nc(Sc2cccc(Cl)c2C(=O)[O-])n1.[Na+] | 248 |  |  |
| O=[N+]([O-])c1ccc(O)c(F)c1 | 121 |  |  |
| CCOP(=O)([O-])C(N)=O.[NH4+] | 175 |  |  |
| Cc1ccc(C(=O)c2ccc(C)cc2)cc1 | 96.5 | 334 |  |
| CCS(=O)(=O)CCn1c([N+](=O)[O-])cnc1C | 128 |  |  |
| CC1=C(O)C(=O)C(C)O1 (centres undefined) | 80.5 |  |  |
| CCCCCCCCCCCC(=O)Oc1c(Cl)c(Cl)c(Cl)c(Cl)c1Cl |  |  | ready biodegradability: not readily biodegradable |
| Fc1cc2c(cc1F)Oc1cc(Br)c(Br)cc1O2 | 210 |  | log10 vapour pressure (mmHg): -7.74 |
| NC(=O)Nc1ccc2ccccc2c1 | 219 |  |  |
| O=[N+]([O-])c1cc(C(F)(F)F)cc([N+](=O)[O-])c1Cl | 57 |  |  |
| C/C=C(\C)C(=O)O | 64.5 | 198 | log10 vapour pressure (mmHg): -0.875 |
| N#Cc1c[nH]cc1-c1cccc2c1OC(F)(F)O2 | 200 |  | log10 vapour pressure (mmHg): -8.53 |
| Cc1cccc(C(C)C)c1O | -14.5 | 226 |  |
| S=C(S)N1CCNCC1 | 228 |  |  |

| SMILES | melting point [°C] | boiling point [°C] | further results |
| --- | --- | --- | --- |
| O=C(CO)[C@@H](O)[C@@H](O)[C@H](O)[C@H](O)CO | 151 |  |  |
| CC(C)CCC(C)C | -91 | 109 | log10 biodegradation half-life (days): 1.4; log10 vapour pressure (mmHg): 1.48 |
| CCCCCCCC(=O)O | 16.3 | 239 | log10 vapour pressure (mmHg): -2.43; ready biodegradability: readily biodegradable |
| O=C(O)c1cc([N+](=O)[O-])ccc1O | 230 |  |  |
| CCCC=C(C)C | -130 | 95.4 | log10 vapour pressure (mmHg): 1.73 |
| C=Cc1ccc(CCl)cc1 |  |  | ready biodegradability: not readily biodegradable |
| C1=CC2C3C=CC(C3)C2C1 (centres undefined) | 15.5 | 170 | log10 vapour pressure (mmHg): 0.361; ready biodegradability: not readily biodegradable; log10 BCF: 2.34 |
| Cc1cccc(CC#N)c1 |  | 248 |  |
| C=C(C)c1ccc(C)cc1 | -20 | 185 |  |
| CCN(Cc1ccc(Cl)nc1)C(=C[N+](=O)[O-])NC | 82.8 |  |  |
| CCCCCCCCCCCCCC(N)=O | 104 |  |  |
| C[C@@H]1C[C@@]2(C)[C@@H](CC[C@@H]3[C@@H]2CC[C@]2(C)[C@@H](O)CC[C@@H]32)CC1=O | 151 |  |  |
| c1c[nH]cn1 | 90.5 | 257 | ready biodegradability: readily biodegradable |
| CC(=O)Nc1ccccc1 | 114 | 304 | log10 Koc (L/kg): 1.43; log10 vapour pressure (mmHg): -3.7; ready biodegradability: readily biodegradable |
| CCN(CC)c1ccc(C)cc1 |  | 229 |  |
| c1ccc2c(c1)NCCN2 | 99 | 289 |  |
| c1ccc2c(c1)ccc1nc3ccc4ccccc4c3cc12 | 216 |  |  |
| CC(=O)C(Cl)(Cl)Cl |  | 149 |  |
| Cc1cc(C=O)ccc1O | 119 |  |  |
| Cc1cc(C(C#N)c2ccc(Cl)cc2)c(Cl)cc1NC(=O)c1cc(I)cc(I)c1O (centres undefined) | 218 |  |  |
| CCCCC(=O)c1ccc(N)cc1 | 74.5 |  |  |
| COC(F)(F)C(Cl)Cl | -35 | 105 | log10 Henry constant (atm·m³/mol): -2.43 |
| CC(Cc1ccccc1)c1ccccc1 (centres undefined) | 52 | 280 |  |
| N#CCCCCCN | -31.4 | 236 | log10 vapour pressure (mmHg): -0.745 |
| Oc1ccc(N=Nc2ccc(N=Nc3ccccc3)c3ccccc23)cc1 | 210 |  |  |

| SMILES | melting point [°C] | boiling point [°C] | further results |
| --- | --- | --- | --- |
| CC(C)(C)c1cccc(C(C)(C)C)n1 | 2.2 |  |  |
| CC(=O)C(c1ccccc1)c1ccccc1 | 46 | 307 |  |
| C[C@]12CC[C@H](O)CC1=CC[C@@H]1[C@@H]2CC[C@@]2(C)[C@H]1CC[C@]2(C)O | 206 |  |  |
| CCC(=O)O[C@H]([C@H](C)[C@H]1O[C@@]2(CC[C@@](C)([C@H]3CC[C@@](C)(C4O[C@@H]([C@H]5O[C@@](O)(CO)[C@H](C)C[C@@H]5C)C[C@@H]4C)O3)O2)C[C@H](O)[C@H]1C)[C@@H](C)C(=O)O (some centres undefined) | 152 |  |  |
| O=S(=O)(O)c1ccc(Cl)cc1 | 67 |  | ready biodegradability: readily biodegradable |
| O=S(Cc1ccccc1)Cc1ccccc1 | 134 |  |  |
| CC[C@]1(O)C[C@H]2C[N@](CCc3c([nH]c4ccccc34)[C@@](C(=O)OC)(c3cc4c(cc3OC)N(C)[C@H]3[C@@](O)(C(N)=O)[C@H](O)[C@]5(CC)C=CCN6CC[C@]43[C@@H]65)C2)C1 | 231 |  |  |
| O=[N+]([O-])c1cc([N+](=O)[O-])c2ccccc2c1O | 131 |  |  |
| CC(=O)C(C)=O | -1.2 | 88 | log10 Henry constant (atm·m³/mol): -4.88; log10 vapour pressure (mmHg): 1.75 |
| CCOC(=O)c1cnn(C)c1S(=O)(=O)NC(=O)Nc1nc(OC)cc(OC)n1 | 182 |  |  |
| CCCN=C=O |  | 83.5 |  |
| Cc1ccc(-c2ccccc2)cc1C | 29.5 | 282 |  |
| CC(C)(C)CC(=O)OCC(=O)[C@@]12OC(C)(C)O[C@@H]1C[C@H]1[C@@H]3CCC4=CC(=O)C=C[C@]4(C)[C@@]3(F)[C@@H](O)C[C@@]12C | 295 |  |  |
| FC1(F)OC1(F)F | -118 | -63.5 |  |
| CCOC(F)(F)C(F)F |  | 57.5 | log10 vapour pressure (mmHg): 2.34 |
| Nc1ccc(Br)cc1 | 66.4 |  | log10 Koc (L/kg): 1.96 |
| COC(=O)CC(=O)OC | -61.9 | 181 | log10 vapour pressure (mmHg): -0.0458 |
| CC(C)COc1ccccc1 |  | 198 |  |
| CC(=O)NCC1(c2ccccc2)CCN(CCCC(=O)c2ccc(F)cc2)CC1 | 98.5 |  |  |
| CCCC(O)C(CC)CO (centres undefined) | -40 | 244 | log10 vapour pressure (mmHg): -2.52 |
| C=C(C)C1CCC=C(C)C1 (centres undefined) |  | 176 |  |
| Cc1ccc(S(=O)(=O)O)c(C)c1 | 57 |  | ready biodegradability: readily biodegradable |
| CB(C)N(C)C | -92 | 65 |  |
| O=C(O)[C@@H](CO)c1ccccc1 | 118 |  |  |
| CNC(=O)Oc1cc(C)c(C)c(C)c1 | 109 |  | log10 Koc (L/kg): 2.6; log10 vapour pressure (mmHg): -4.29 |

| SMILES | melting point [°C] | boiling point [°C] | further results |
| --- | --- | --- | --- |
| OCc1ccc2c(c1)OCO2 | 58 |  |  |
| CC(C)CCC(=O)O | -33 | 200 |  |
| C#CCCCCCCC(=O)O | 19 |  |  |
| COc1ccc(Cl)c(Cl)c1Cl | 69.5 |  | log10 BCF: 2.96; log10 biotransformation half-life (days): 1.4 |
| N=C(N)NS(=O)(=O)c1ccc(N)cc1 | 192 |  |  |
| Oc1ccccc1Br | 5.6 | 194 | ready biodegradability: not readily biodegradable; log10 BCF: 1.52; log10 biotransformation half-life (days): -0.24 |
| CCCCOC(=O)CC(C)=O | -35.6 |  | ready biodegradability: readily biodegradable |
| Cc1cc(Cl)cc(Cl)c1 | 26 | 202 |  |
| N#CCc1c[nH]c2ccccc12 | 36 |  |  |
| CC(=O)CF |  | 77 | log10 vapour pressure (mmHg): 1.8 |
| CNC(=O)COC(=O)c1ccccc1 | 112 |  |  |
| N#CC1=C(C#N)C(=O)C(Cl)=C(Cl)C1=O | 214 |  |  |
| c1ccc(N=NNc2ccccc2)cc1 | 98 |  | log10 vapour pressure (mmHg): -4.72 |
| CCC(O)(COC(N)=O)c1ccccc1 (centres undefined) | 55 |  |  |
| CC(C)C(O)(c1ccc(OC(F)(F)F)cc1)c1cncnc1 (centres undefined) | 95 | 264 | log10 vapour pressure (mmHg): -6.44 |
| CC(C)N=C=O |  | 74.5 |  |
| CC(=O)N(CC(C)C(=O)O)c1c(I)cc(I)c(N)c1I (centres undefined) | 224 |  |  |
| Oc1ccc(O)c(Cl)c1 | 108 | 263 |  |
| CN(C)N=O |  | 154 | log10 vapour pressure (mmHg): 0.431; ready biodegradability: not readily biodegradable |
| CC(=O)c1ccccc1Cl |  |  | ready biodegradability: not readily biodegradable |
| Cc1cccc2cccnc12 | -80 | 248 | log10 vapour pressure (mmHg): -1.6 |
| Cc1cc(Br)ccc1Br | 5.6 | 236 |  |
| CCCCCCCCCCCCCCCCCCCCCCCCCCCCCC | 65.8 | 450 | log10 biodegradation half-life (days): 2.24; log10 vapour pressure (mmHg): -10.6; ready biodegradability: readily biodegradable |
